Measurements taken from publication PMC9481151, “Discovery of new symmetrical and asymmetrical nitrile-containing 1,4-dihydropyridine derivatives as dual kinases and P-glycoprotein inhibitors: synthesis, in vitro assays, and in silico studies” (Journal of Enzyme Inhibition and Medicinal Chemistry, 2022).

Assays:
SK-MEL-28 = test: NCI single dose (10 µM) SRB screen; type: cell-based, human; conditions: melanoma, 48 h
MALME-3M = test: NCI single dose (10 µM) SRB screen; type: cell-based, human; conditions: melanoma, 48 h
A498 = test: NCI single dose (10 µM) SRB screen; type: cell-based, human; conditions: renal cancer, 48 h
OVCAR-4 = test: NCI single dose (10 µM) SRB screen; type: cell-based, human; conditions: ovarian cancer, 48 h
MDA-MB-468 = test: NCI single dose (10 µM) SRB screen; type: cell-based, human; conditions: breast cancer, 48 h
SN12C = test: NCI single dose (10 µM) SRB screen; type: cell-based, human; conditions: renal cancer, 48 h
HCC-2998 = test: NCI single dose (10 µM) SRB screen; type: cell-based, human; conditions: colon cancer, 48 h
M14 = test: NCI single dose (10 µM) SRB screen; type: cell-based, human; conditions: melanoma, 48 h
OVCAR-3 = test: NCI single dose (10 µM) SRB screen; type: cell-based, human; conditions: ovarian cancer, 48 h
MDA-MB-435 = test: NCI single dose (10 µM) SRB screen; type: cell-based, human; conditions: melanoma, 48 h
Bacillus subtilis = test: Agar well diffusion method; conditions: relative to ciprofloxacin
UO-31 = test: NCI single dose (10 µM) SRB screen; type: cell-based, human; conditions: renal cancer, 48 h
BT-549 = test: NCI single dose (10 µM) SRB screen; type: cell-based, human; conditions: breast cancer, 48 h
Staphylococcus aureus = test: Agar well diffusion method
UACC-257 = test: NCI single dose (10 µM) SRB screen; type: cell-based, human; conditions: melanoma, 48 h
PC-3 = test: NCI single dose (10 µM) SRB screen; type: cell-based, human; conditions: prostate cancer, 48 h
Pseudomonas aeruginosa = test: Agar well diffusion method
SF-295 = test: NCI single dose (10 µM) SRB screen; type: cell-based, human; conditions: CNS cancer, 48 h
786-0 = test: NCI single dose (10 µM) SRB screen; type: cell-based, human; conditions: renal cancer, 48 h
SF-539 = test: NCI single dose (10 µM) SRB screen; type: cell-based, human; conditions: CNS cancer, 48 h
U251 = test: NCI single dose (10 µM) SRB screen; type: cell-based, human; conditions: CNS cancer, 48 h
HCT-15 = test: NCI single dose (10 µM) SRB screen; type: cell-based, human; conditions: colon cancer, 48 h
K-562 = test: NCI single dose (10 µM) SRB screen; type: cell-based, human; conditions: leukaemia, 48 h
RPMI-8226 = test: NCI single dose (10 µM) SRB screen; type: cell-based, human; conditions: leukaemia, 48 h
A549/ATCC = test: NCI single dose (10 µM) SRB screen; type: cell-based, human; conditions: non-small cell lung cancer, 48 h
HOP-92 = test: NCI single dose (10 µM) SRB screen; type: cell-based, human; conditions: non-small cell lung cancer, 48 h
SK-OV-3 = test: NCI single dose (10 µM) SRB screen; type: cell-based, human; conditions: ovarian cancer, 48 h
LOX IMVI = test: NCI single dose (10 µM) SRB screen; type: cell-based, human; conditions: melanoma, 48 h
HOP-62 = test: NCI single dose (10 µM) SRB screen; type: cell-based, human; conditions: non-small cell lung cancer, 48 h
HCT-116 = test: NCI single dose (10 µM) SRB screen; type: cell-based, human; conditions: colon cancer, 48 h
EKVX = test: NCI single dose (10 µM) SRB screen; type: cell-based, human; conditions: non-small cell lung cancer, 48 h
CCRF-CEM = test: NCI single dose (10 µM) SRB screen; type: cell-based, human; conditions: leukaemia, 48 h
OVCAR-8 = test: NCI single dose (10 µM) SRB screen; type: cell-based, human; conditions: ovarian cancer, 48 h
NCI-H322M = test: NCI single dose (10 µM) SRB screen; type: cell-based; conditions: non-small cell lung cancer, 48 h
UACC-62 = test: NCI single dose (10 µM) SRB screen; type: cell-based, human; conditions: melanoma, 48 h
SNB-75 = test: NCI single dose (10 µM) SRB screen; type: cell-based, human; conditions: CNS cancer, 48 h
NCI-H23 = test: NCI single dose (10 µM) SRB screen; type: cell-based, human; conditions: non-small cell lung cancer, 48 h
T-47D = test: NCI single dose (10 µM) SRB screen; type: cell-based, human; conditions: breast cancer, 48 h
SF-268 = test: NCI single dose (10 µM) SRB screen; type: cell-based, human; conditions: CNS cancer, 48 h
NCI-H522 = test: NCI single dose (10 µM) SRB screen; type: cell-based, human; conditions: non-small cell lung cancer, 48 h
HL-60(TB) = test: NCI single dose (10 µM) SRB screen; type: cell-based, human; conditions: leukaemia, 48 h
NCI/ADR-RES = test: NCI single dose (10 µM) SRB screen; type: cell-based, human; conditions: ovarian cancer, 48 h
SR = test: NCI single dose (10 µM) SRB screen; type: cell-based, human; conditions: leukaemia, 48 h
MCF7 = test: NCI single dose (10 µM) SRB screen; type: cell-based, human; conditions: breast cancer, 48 h
MOLT-4 = test: NCI single dose (10 µM) SRB screen; type: cell-based, human; conditions: leukaemia, 48 h
NCI-H460 = test: NCI single dose (10 µM) SRB screen; type: cell-based, human; conditions: non-small cell lung cancer, 48 h
RXF 393 = test: NCI single dose (10 µM) SRB screen; type: cell-based, human; conditions: renal cancer, 48 h
SW-620 = test: NCI single dose (10 µM) SRB screen; type: cell-based, human; conditions: colon cancer, 48 h
MDA-MB-231 = test: NCI single dose (10 µM) SRB screen; type: cell-based, human; conditions: breast cancer, 48 h
NCI 60 cancer cell lines = test: NCI single dose (10 µM) SRB screen, mean over panel; type: cell-based, human; conditions: mean over 60 cell lines, 48 h
SNB-19 = test: NCI single dose (10 µM) SRB screen; type: cell-based, human; conditions: CNS cancer, 48 h
COLO 205 = test: NCI single dose (10 µM) SRB screen; type: cell-based, human; conditions: colon cancer, 48 h
DU-145 = test: NCI single dose (10 µM) SRB screen; type: cell-based, human; conditions: prostate cancer, 48 h

COC(=O)C1=C(C)NC(C)=C(C(=O)OCC(C)C)C1c1cccc(C#N)c1 (racemic) [Compound 2b, (±)-3-Isobutyl 5-methyl 4-(3-cyanophenyl)-2,6-dimethyl-1,4-dihydropyridine-3,5-dicarboxylate]
GI% SK-MEL-28 (SK-MEL-28): – (Only GI% ≥ 10 are shown) | GI% MALME-3M (MALME-3M): – (Only GI% ≥ 10 are shown) | GI% A498 (A498): – (Only GI% ≥ 10 are shown) | GI% OVCAR-4 (OVCAR-4): – (Only GI% ≥ 10 are shown) | GI% MDA-MB-468 (MDA-MB-468): – (Only GI% ≥ 10 are shown) | GI% SN12C (SN12C): – (Only GI% ≥ 10 are shown) | GI% HCC-2998 (HCC-2998): – (Only GI% ≥ 10 are shown) | GI% M14 (M14): – (Only GI% ≥ 10 are shown) | GI% OVCAR-3 (OVCAR-3): – (Only GI% ≥ 10 are shown) | GI% MDA-MB-435 (MDA-MB-435): – (Only GI% ≥ 10 are shown) | % activity index, B. subtilis (Bacillus subtilis): – (Values below 25 are of limited value and not shown as they refer either to inactive or non-diffusing compounds) | GI% UO-31 (UO-31): 11% | GI% BT-549 (BT-549): – (Only GI% ≥ 10 are shown) | zone of inhibition at 1000 µg/mL (Staphylococcus aureus; Staphylococcus aureus, 24 h, read-out: Diameter of inhibition zone, S. aureus): 9 mm | % activity index, S. aureus (Staphylococcus aureus; relative to ciprofloxacin): 37.5% | GI% UACC-257 (UACC-257): – (Only GI% ≥ 10 are shown) | GI% PC-3 (PC-3): 22% | zone of inhibition at 1000 µg/mL (Pseudomonas aeruginosa; Pseudomonas aeruginosa, 24 h, read-out: Diameter of inhibition zone, P. aeruginosa): 13 mm | % activity index, P. aeruginosa (Pseudomonas aeruginosa; relative to ciprofloxacin): 56.5% | GI% SF-295 (SF-295): 18% | GI% 786-0 (786-0): – (Only GI% ≥ 10 are shown) | GI% SF-539 (SF-539): – (Only GI% ≥ 10 are shown) | GI% U251 (U251): – (Only GI% ≥ 10 are shown) | GI% HCT-15 (HCT-15): – (Only GI% ≥ 10 are shown) | GI% K-562 (K-562): 15% | GI% RPMI-8226 (RPMI-8226): – (Only GI% ≥ 10 are shown) | GI% A549/ATCC (A549/ATCC): – (Only GI% ≥ 10 are shown) | GI% HOP-92 (HOP-92): 17% | GI% SK-OV-3 (SK-OV-3): – (Only GI% ≥ 10 are shown) | GI% LOX IMVI (LOX IMVI): – (Only GI% ≥ 10 are shown) | GI% HOP-62 (HOP-62): – (Only GI% ≥ 10 are shown) | GI% HCT-116 (HCT-116): 18% | GI% EKVX (EKVX): 12% | GI% CCRF-CEM (CCRF-CEM): – (Only GI% ≥ 10 are shown) | GI% OVCAR-8 (OVCAR-8): – (Only GI% ≥ 10 are shown) | GI% NCI-H322M (NCI-H322M): – (Only GI% ≥ 10 are shown) | GI% UACC-62 (UACC-62): 21% | GI% SNB-75 (SNB-75): 22% | GI% NCI-H23 (NCI-H23): – (Only GI% ≥ 10 are shown) | GI% T-47D (T-47D): 25% | GI% SF-268 (SF-268): – (Only GI% ≥ 10 are shown) | GI% NCI-H522 (NCI-H522): 15% | GI% HL-60(TB) (HL-60(TB)): 18% | GI% NCI/ADR-RES (NCI/ADR-RES): – (Only GI% ≥ 10 are shown) | GI% SR (SR): 29% | GI% MCF7 (MCF7): 15% | GI% MOLT-4 (MOLT-4): 16% | GI% NCI-H460 (NCI-H460): – (Only GI% ≥ 10 are shown) | GI% RXF 393 (RXF 393): – (Only GI% ≥ 10 are shown) | GI% SW-620 (SW-620): – (Only GI% ≥ 10 are shown) | GI% MDA-MB-231 (MDA-MB-231): – (Only GI% ≥ 10 are shown) | Mean GI% (NCI 60 cancer cell lines): 5% | GI% SNB-19 (SNB-19): – (Only GI% ≥ 10 are shown) | GI% COLO 205 (COLO 205): – (Only GI% ≥ 10 are shown) | GI% DU-145 (DU-145): – (Only GI% ≥ 10 are shown)
